This note sets out measurements from the supplement of paper PMC10307832.

Assay in all cases: relative viability (nuclei count vs DMSO), 5 days (fraction); higher = more cells survive
Compound in the assay “KIN001-266 + Bortezomib”: CCN1CCC(CC1)N2C=C(N=N2)CNC3=CC4=C(C(=CN=C4C(=C3)Cl)C#N)NC5=CC(=C(C=C5)F)Cl [KIN001-266] + CC(C)C[C@H](NC(=O)[C@H](Cc1ccccc1)NC(=O)c1cnccn1)B(O)O [Bortezomib] (partner 0.002 µM)
In a few lines: (§1)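 Each reported value is a median over duplicate plates. It expresses relative viability: treated-well nuclei count divided by vehicle-well nuclei count. Lung cancer cell lines in 1536-well plates were dosed by pin tool a day after seeding, alone with one drug or with a fixed anchor-drug dose plus five library-drug doses (not always all listed) in √10 steps, and nuclei were counted after 5 days.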

Compound in the assay “KIN001-266 + Pemetrexed”: CCN1CCC(CC1)N2C=C(N=N2)CNC3=CC4=C(C(=CN=C4C(=C3)Cl)C#N)NC5=CC(=C(C=C5)F)Cl [KIN001-266] + Nc1nc2[nH]cc(CCc3ccc(C(=O)N[C@@H](CCC(=O)O)C(=O)O)cc3)c2c(=O)[nH]1 [Pemetrexed] (partner 0.2 µM)
In outline:
as §1

Compound in the assay “KIN001-266 + Alpelisib”: CCN1CCC(CC1)N2C=C(N=N2)CNC3=CC4=C(C(=CN=C4C(=C3)Cl)C#N)NC5=CC(=C(C=C5)F)Cl [KIN001-266] + Cc1nc(NC(=O)N2CCC[C@H]2C(N)=O)sc1-c1ccnc(C(C)(C)C(F)(F)F)c1 [Alpelisib] (partner 2 µM)
In outline:
as §1

Compound in the assay “KIN001-266 + Olaparib”: CCN1CCC(CC1)N2C=C(N=N2)CNC3=CC4=C(C(=CN=C4C(=C3)Cl)C#N)NC5=CC(=C(C=C5)F)Cl [KIN001-266] + O=C(c1cc(Cc2n[nH]c(=O)c3ccccc23)ccc1F)N1CCN(C(=O)C2CC2)CC1 [Olaparib] (partner 8 µM)
In outline: as §1

For the cell line HCC-44, the relative viability was found to be 0.944 with KIN001-266 + Bortezomib (first compound 0.08 µM); 0.867 with KIN001-266 + Bortezomib (first compound 0.253 µM); 0.815 with KIN001-266 + Bortezomib (first compound 0.8 µM); 0.852 with KIN001-266 + Bortezomib (first compound 2.53 µM); 0.864 in the assay with KIN001-266 + Bortezomib (first compound 8 µM); 0.678 in the assay with KIN001-266 + Pemetrexed (first compound 0.08 µM). Besides, the relative viability in the assay with KIN001-266 + Pemetrexed (first compound 0.253 µM) stood at 0.651; in the assay with KIN001-266 + Pemetrexed (first compound 0.8 µM), 0.607; with KIN001-266 + Pemetrexed (first compound 2.53 µM), 0.592; with KIN001-266 + Pemetrexed (first compound 8 µM), 0.642; with KIN001-266 + Alpelisib (first compound 0.08 µM) it was 0.806; with KIN001-266 + Alpelisib (first compound 0.253 µM), 0.838. Further, the relative viability is 0.805 with KIN001-266 + Alpelisib (first compound 0.8 µM); 0.868 in the assay with KIN001-266 + Alpelisib (first compound 2.53 µM); 0.651 in the assay with KIN001-266 + Alpelisib (first compound 8 µM); 0.994 in the assay with KIN001-266 + Olaparib (first compound 0.08 µM); 0.959 with KIN001-266 + Olaparib (first compound 0.253 µM); 0.944 in the assay with KIN001-266 + Olaparib (first compound 0.8 µM). For the same cell line, the relative viability in the assay with KIN001-266 + Olaparib (first compound 2.53 µM) was determined as 0.884; in the assay with KIN001-266 + Olaparib (first compound 8 µM), 0.993.
For HCC-78, the relative viability with KIN001-266 + Bortezomib (first compound 0.08 µM) stood at 0.57; with KIN001-266 + Bortezomib (first compound 0.253 µM), 0.261; with KIN001-266 + Bortezomib (first compound 0.8 µM) it was 0.464; in the assay with KIN001-266 + Bortezomib (first compound 2.53 µM), 0.495; with KIN001-266 + Bortezomib (first compound 8 µM) it was 0.616; with KIN001-266 + Pemetrexed (first compound 0.08 µM), 0.874. In addition, the relative viability in the assay with KIN001-266 + Pemetrexed (first compound 0.253 µM) was 0.832; with KIN001-266 + Pemetrexed (first compound 0.8 µM), 0.872; in the assay with KIN001-266 + Pemetrexed (first compound 2.53 µM), 0.873; in the assay with KIN001-266 + Pemetrexed (first compound 8 µM) it was 0.91; in the assay with KIN001-266 + Alpelisib (first compound 0.08 µM) it was 0.302; with KIN001-266 + Alpelisib (first compound 0.253 µM), 0.346. Moreover, the relative viability amounted to 0.377 with KIN001-266 + Alpelisib (first compound 0.8 µM); 0.46 in the assay with KIN001-266 + Alpelisib (first compound 2.53 µM); 0.411 with KIN001-266 + Alpelisib (first compound 8 µM); 0.832 in the assay with KIN001-266 + Olaparib (first compound 0.08 µM); 0.793 with KIN001-266 + Olaparib (first compound 0.253 µM); 0.767 in the assay with KIN001-266 + Olaparib (first compound 0.8 µM). Moreover, the relative viability came to 0.841 with KIN001-266 + Olaparib (first compound 2.53 µM) and 0.677 with KIN001-266 + Olaparib (first compound 8 µM).
As for HCC-366, the relative viability with KIN001-266 + Bortezomib (first compound 0.08 µM) is 1.04; in the assay with KIN001-266 + Bortezomib (first compound 0.253 µM), 1.06; with KIN001-266 + Bortezomib (first compound 0.8 µM), 0.996; with KIN001-266 + Bortezomib (first compound 2.53 µM), 0.998; with KIN001-266 + Bortezomib (first compound 8 µM), 1.01; with KIN001-266 + Pemetrexed (first compound 0.08 µM), 0.207. Moreover, the relative viability in the assay with KIN001-266 + Pemetrexed (first compound 0.253 µM) worked out at 0.157; in the assay with KIN001-266 + Pemetrexed (first compound 0.8 µM), 0.144; in the assay with KIN001-266 + Pemetrexed (first compound 2.53 µM), 0.184; with KIN001-266 + Pemetrexed (first compound 8 µM), 0.24; in the assay with KIN001-266 + Alpelisib (first compound 0.08 µM) it was 0.495; with KIN001-266 + Alpelisib (first compound 0.253 µM) it was 0.492. The relative viability with KIN001-266 + Alpelisib (first compound 0.8 µM) came out at 0.583; in the assay with KIN001-266 + Alpelisib (first compound 2.53 µM), 0.374; with KIN001-266 + Alpelisib (first compound 8 µM), 0.364; with KIN001-266 + Olaparib (first compound 0.08 µM), 0.403; with KIN001-266 + Olaparib (first compound 0.253 µM) it was 0.339; in the assay with KIN001-266 + Olaparib (first compound 0.8 µM), 0.271. Also, the relative viability with KIN001-266 + Olaparib (first compound 2.53 µM) came out at 0.3; with KIN001-266 + Olaparib (first compound 8 µM), 0.227.
Consider HCC-827, for which the relative viability with KIN001-266 + Bortezomib (first compound 0.08 µM) is 1.09; with KIN001-266 + Bortezomib (first compound 0.253 µM), 1.03; in the assay with KIN001-266 + Bortezomib (first compound 2.53 µM), 1.07; with KIN001-266 + Bortezomib (first compound 8 µM), 1.09; with KIN001-266 + Pemetrexed (first compound 0.08 µM) it was 0.264; with KIN001-266 + Pemetrexed (first compound 0.253 µM), 0.259. Besides, the relative viability with KIN001-266 + Pemetrexed (first compound 0.8 µM) is 0.166; with KIN001-266 + Pemetrexed (first compound 2.53 µM), 0.214; with KIN001-266 + Pemetrexed (first compound 8 µM) it was 0.23; with KIN001-266 + Alpelisib (first compound 0.08 µM), 0.953; with KIN001-266 + Alpelisib (first compound 0.253 µM), 1.04; in the assay with KIN001-266 + Alpelisib (first compound 2.53 µM) it was 0.948. Also, the relative viability is 0.648 with KIN001-266 + Alpelisib (first compound 8 µM); 0.577 with KIN001-266 + Olaparib (first compound 0.08 µM); 0.602 in the assay with KIN001-266 + Olaparib (first compound 0.253 µM); 0.557 in the assay with KIN001-266 + Olaparib (first compound 0.8 µM); 0.585 with KIN001-266 + Olaparib (first compound 2.53 µM); 0.528 with KIN001-266 + Olaparib (first compound 8 µM).
